Assay results reported in patent publication US11312719B2, “9-substituted amino triazolo quinazoline derivatives as adenosine receptor antagonists, pharmaceutical compositions and their use” (Merck Sharp & Dohme Corp., priority 2018, dated 2022).

Key:
human A2A receptors = human A2A receptors (Homo sapiens (Human), UniProt P29274); experiment: A2A antagonism in cAMP cell-based assay (LANCE cAMP, HEK293); conditions: HEK293 cells expressing human A2A receptor
Procedure: (§1) Measurement of A2A and A2B Antagonism in cAMP Cell-Based Assay
(§2) The ability of compounds to antagonize human A2A and A2B adenosine receptors was determined using a kit to measure changes in intracellular cyclic AMP levels (LANCE cAMP 384 Kit, Perkin Elmer, Cat. No. AD0264). HEK293 cells recombinantly expressing either human A2A or A2B receptors, previously frozen in Recovery Medium (Life Technologies, Cat. No. 12648-010) were thawed and diluted into stimulation buffer (HBSS (Hyclone SH 30268.01), 5 mM HEPES (Gibco 15630-106), 200 nM rolipram (Tocris, Cat. No. 0905), and 1.5% (V/v) BSA stabilizer (kit component). The cell suspension was centrifuged at 200×g for 10 min and then resuspended in stimulation buffer, supplemented with a 1:10 000 dilution of Alexa Fluor 647 anti-cAMP antibody, to a density of 6.0×10^5 cells/mL. A Labcyte Echo 550 acoustic dispenser was used to transfer up to 25 nL of test compound dissolved in DMSO into the wells of a dry Optiplate-384 plate (Perkin Elmer, Cat. No. 6008289). All subsequent liquid additions were performed using a multichannel pipettor. Next, 5 μL of the cell suspension was added to the wells of the Optiplate-384 and incubated for 30 min. at 37° C. and 5% CO2 in a humidified environment. After this time 5 μL of either 300 nM or 600 nM adenosine (Sigma Cat. No. A9251) for A2A and A2B respectively was added and incubated for 30 minutes at 37° C. and 5% CO2 in a humidified environment. At this time detection mix was prepared by combining the LANCE Eu-W8044 labeled streptavidin and Biotin-cAMP in detection buffer according to the manufacturers protocol. 10 μL of the detection mix was added to each well of the Optiplate-384 which was covered with a plate seal and incubated under ambient conditions for 2 hours prior to reading the plate using an Envision (Perkin Elmer, Waltham, Mass.) multimode plate reader. Data was normalized by defining minimal effect as stimulation in the presence of 0.25% (v/v) DMSO and maximal effect as stimulation in the presence of 1 μM ZM241385 (Cayman, Cat. No. 1036). Curve fitting of the percent effect data versus the log of compound concentration used a 4-parameter concentration response curve fitting algorithm to calculate IC50 values. Compound concentrations tested were 10,000, 3,333, 1,111, 370.4, 123.4, 41.2, 13.7, 4.6, 1.5 and 0.5 nM with 0.25% residual DMSO.

human A2B receptors = human A2B receptors (Homo sapiens (Human), UniProt P29275); experiment: A2B antagonism in cAMP cell-based assay (LANCE cAMP, HEK293); conditions: HEK293 cells expressing human A2B receptor
human A2B receptors, sequence (P29275 whole entry): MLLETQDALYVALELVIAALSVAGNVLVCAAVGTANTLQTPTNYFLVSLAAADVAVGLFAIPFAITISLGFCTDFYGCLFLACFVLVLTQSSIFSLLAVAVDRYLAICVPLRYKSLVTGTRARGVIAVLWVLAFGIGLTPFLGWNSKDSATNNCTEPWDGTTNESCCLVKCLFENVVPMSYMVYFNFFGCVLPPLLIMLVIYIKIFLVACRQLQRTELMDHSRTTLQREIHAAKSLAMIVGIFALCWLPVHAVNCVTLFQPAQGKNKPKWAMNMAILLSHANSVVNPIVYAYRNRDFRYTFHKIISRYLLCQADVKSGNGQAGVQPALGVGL
Procedure: as §1, §2

human A2A receptors, sequence (P29274 whole entry): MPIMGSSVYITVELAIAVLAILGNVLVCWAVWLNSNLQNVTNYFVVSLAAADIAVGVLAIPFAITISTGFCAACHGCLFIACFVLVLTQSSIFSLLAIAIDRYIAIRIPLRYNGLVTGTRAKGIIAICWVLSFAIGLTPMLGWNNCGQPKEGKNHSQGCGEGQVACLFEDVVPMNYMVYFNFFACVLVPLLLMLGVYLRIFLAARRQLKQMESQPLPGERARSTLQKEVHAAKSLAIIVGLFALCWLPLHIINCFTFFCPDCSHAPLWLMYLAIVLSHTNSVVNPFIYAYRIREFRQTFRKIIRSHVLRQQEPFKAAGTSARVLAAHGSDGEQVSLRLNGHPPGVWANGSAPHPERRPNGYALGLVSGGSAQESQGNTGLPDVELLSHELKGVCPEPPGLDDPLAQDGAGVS

Row | Compound | IC50 (human A2A receptors) | IC50 (human A2B receptors)
1 | CC1CC(c2nc3c4cc(F)cc(F)c4nc(N)n3n2)CN(c2cnn(C(C)(C)CO)c2)C1 (single isomer, unassigned) [Example 179] | 4 nM | 335 nM
2 | CC1CC(c2nc3c4cc(F)cc(F)c4nc(N)n3n2)CN(c2cnn(C(C)(C)CO)c2)C1 (single isomer, unassigned) [Example 180, 2-(4-((3R,5R or 3S,5S)-3-(5-amino-7,9-difluoro-[1,2,4]triazolo[1,5-c]quinazolin-2-yl)-5-methylpiperidin-1-yl)-1H-pyrazol-1-yl)-2-methylpropan-1-ol] | 54 nM | 5340 nM
3 | CC1CC(c2nc3c4cc(F)cc(F)c4nc(N)n3n2)CN(c2cnn(CC(C)(C)O)c2)C1 (single isomer, unassigned) [Example 181, 1-(4-((3S,5S or 3R,5R)-3-(5-amino-7,9-difluoro-[1,2,4]triazolo[1,5-c]quinazolin-2-yl)-5-methylpiperidin-1-yl)-1H-pyrazol-1-yl)-2-methylpropan-2-ol] | 16 nM | 5100 nM
4 | CC1CC(c2nc3c4cc(F)cc(F)c4nc(N)n3n2)CN(c2cnn(CC(C)(C)O)c2)C1 (single isomer, unassigned) [Example 182, 1-(4-((3R,5R or 3S,5S)-3-(5-amino-7,9-difluoro-[1,2,4]triazolo[1,5-c]quinazolin-2-yl)-5-methylpiperidin-1-yl)-1H-pyrazol-1-yl)-2-methylpropan-2-ol] | 362 nM | > 10000 nM
5 | CCC(C)(O)Cn1cc(N2CCC[C@@H](c3nc4c5cc(F)c(OC)cc5nc(N)n4n3)C2)cn1 (single isomer, unassigned) [Example 183, (R or S)-1-(4-((R)-3-(5-amino-9-fluoro-8-methoxy-[1,2,4]triazolo[1,5-c]quinazolin-2-yl)piperidin-1-yl)-1H-pyrazol-1-yl)-2-methylbutan-2-ol] | 2 nM | 90.6 nM
6 | CCC(C)(O)Cn1cc(N2CCC[C@@H](c3nc4c5cc(F)c(OC)cc5nc(N)n4n3)C2)cn1 (single isomer, unassigned) [Example 184, (S or R)-1-(4-((R)-3-(5-amino-9-fluoro-8-methoxy-[1,2,4]triazolo[1,5-c]quinazolin-2-yl)piperidin-1-yl)-1H-pyrazol-1-yl)-2-methylbutan-2-ol] | 4.9 nM | 346 nM
7 | COc1cc(F)cc2c1nc(N)n1nc([C@@H]3CCCN(c4cnn(C(C)C(C)O)c4)C3)nc21 (single isomer, unassigned) [Example 185, (2S,3S or 2R,3R)-3-(4-((R)-3-(5-amino-9-fluoro-7-methoxy-[1,2,4]triazolo[1,5-c]quinazolin-2-yl)piperidin-1-yl)-1H-pyrazol-1-yl)butan-2-ol] | 1.1 nM | 49.8 nM
8 | COc1cc(F)cc2c1nc(N)n1nc([C@@H]3CCCN(c4cnn(C(C)C(C)O)c4)C3)nc21 (single isomer, unassigned) [Example 186, (2R,3R or 2S,3S)-3-(4-((R)-3-(5-amino-9-fluoro-7-methoxy-[1,2,4]triazolo[1,5-c]quinazolin-2-yl)piperidin-1-yl)-1H-pyrazol-1-yl)butan-2-ol] | 1 nM | 25.8 nM
9 | COc1cc2nc(N)n3nc([C@@H]4CCCN(c5cnn(C(C)C(C)O)c5)C4)nc3c2cc1F (single isomer, unassigned) [Example 187, (2S,3S or 2R,3R)-3-(4-((R)-3-(5-amino-9-fluoro-8-methoxy-[1,2,4]triazolo[1,5-c]quinazolin-2-yl)piperidin-1-yl)-1H-pyrazol-1-yl)butan-2-ol] | 2.6 nM | 95.8 nM
10 | COc1cc2nc(N)n3nc([C@@H]4CCCN(c5cnn(C(C)C(C)O)c5)C4)nc3c2cc1F (single isomer, unassigned) [Example 188, (2R,3R or 2S,3S)-3-(4-((R)-3-(5-amino-9-fluoro-8-methoxy-[1,2,4]triazolo[1,5-c]quinazolin-2-yl)piperidin-1-yl)-1H-pyrazol-1-yl)butan-2-ol] | 1.5 nM | 53.1 nM
11 | COc1cc(F)cc2c1nc(N)n1nc([C@@H]3CCCN(c4cn(C(C)C(C)O)nc4C)C3)nc21 (single isomer, unassigned) [Example 189, (2S,3S or 2R,3R)-3-(4-((R)-3-(5-amino-9-fluoro-7-methoxy-[1,2,4]triazolo[1,5-c]quinazolin-2-yl)piperidin-1-yl)-3-methyl-1H-pyrazol-1-yl)butan-2-ol] | 0.5 nM | 53.4 nM
12 | COc1cc(F)cc2c1nc(N)n1nc([C@@H]3CCCN(c4cn(C(C)C(C)O)nc4C)C3)nc21 (single isomer, unassigned) [Example 190] | 0.8 nM | 55.9 nM
13 | Cc1nn(C(C)C(C)O)cc1N1CCC[C@@H](c2nc3c4cc(F)cc(F)c4nc(N)n3n2)C1 (single isomer, unassigned) [Example 191, (2S,3S or 2R,3R)-3-(4-((R)-3-(5-amino-7,9-difluoro-[1,2,4]triazolo[1,5-c]quinazolin-2-yl)piperidin-1-yl)-3-methyl-1H-pyrazol-1-yl)butan-2-ol] | 0.9 nM | 92.4 nM
14 | Cc1nn(C(C)C(C)O)cc1N1CCC[C@@H](c2nc3c4cc(F)cc(F)c4nc(N)n3n2)C1 (single isomer, unassigned) [Example 192, (2R,3R or 2S,3S)-3-(4-((R)-3-(5-amino-7,9-difluoro-[1,2,4]triazolo[1,5-c]quinazolin-2-yl)piperidin-1-yl)-3-methyl-1H-pyrazol-1-yl)butan-2-ol] | 0.8 nM | 72.4 nM
15 | COc1cc(F)cc2c1nc(N)n1nc([C@@H]3CCCN(c4cnn(C(C)C(C)O)c4C)C3)nc21 (single isomer, unassigned) [Example 193, (2S,3S or 2R,3R)-3-(4-((R)-3-(5-amino-9-fluoro-7-methoxy-[1,2,4]triazolo[1,5-c]quinazolin-2-yl)piperidin-1-yl)-5-methyl-1H-pyrazol-1-yl)butan-2-ol] | 1.3 nM | 251 nM
16 | COc1cc(F)cc2c1nc(N)n1nc([C@@H]3CCCN(c4cnn(C(C)C(C)O)c4C)C3)nc21 (single isomer, unassigned) [Example 194, (2R,3R or 2S,3S)-3-(4-((R)-3-(5-amino-9-fluoro-7-methoxy-[1,2,4]triazolo[1,5-c]quinazolin-2-yl)piperidin-1-yl)-5-methyl-1H-pyrazol-1-yl)butan-2-ol] | 1.7 nM | 318 nM
17 | COc1cc2nc(N)n3nc([C@@H]4CCCN(c5cnn(C(C)C(C)O)c5C)C4)nc3c2cc1F (single isomer, unassigned) [Example 195, (2S,3S or 2R,3R)-3-(4-((R)-3-(5-amino-9-fluoro-8-methoxy-[1,2,4]triazolo[1,5-c]quinazolin-2-yl)piperidin-1-yl)-5-methyl-1H-pyrazol-1-yl)butan-2-ol] | 3.4 nM | 389 nM
18 | COc1cc2nc(N)n3nc([C@@H]4CCCN(c5cnn(C(C)C(C)O)c5C)C4)nc3c2cc1F (single isomer, unassigned) [Example 196, (2R,3R or 2S,3S)-3-(4-((R)-3-(5-amino-9-fluoro-8-methoxy-[1,2,4]triazolo[1,5-c]quinazolin-2-yl)piperidin-1-yl)-5-methyl-1H-pyrazol-1-yl)butan-2-ol] | 3.7 nM | 475 nM
